Reference: patent US12357644B2, “Acetyl salicylic acid composition for intravenous administration, its storage, production and use” (HYLORIS DEVELOPMENTS SA, priority 2022, dated 2025)
Several values for one entry are separate records, joined by “and”; a condition that tells them apart may be missing. Identical values can stand only once.

Assays:
[1] = Salicylic acid content in sample solutions kept at benchtop; format: physicochemical; settings: for Average conc. salicylic acid: no pH adjustment; for Average conc. salicylic acid / Average conc. of salicylic acid: benchtop
Procedure: In addition, storage stability screenings were conducted. The solutions prepared as previously described, were kept on a benchtop at 24+/−3° C. and 70% relative humidity. For media with no pH adjustment, the degradation of ASA is higher in ethanol as compared to the other media in the test (see Table 8). For media with pH adjustment, degradation of ASA in acidified TBA, acidified water and acidified water with mannitol were almost similar. Degradation in acidified TBA was higher than in acidified ethanol at 24+/−3° C. and 70% relative humidity (see Table 9).
It was observed that acidified ethanol has the highest solubility and stability. […] The finding of up to 72 hours stability is critical, because it allows manipulations during the manufacturing process and a manufacturing run of up to 3 days.

[2] = cited from earlier work
[3] = Terminal sterilization by autoclaving, degradation of ASA; format: physicochemical; settings: autoclaving at 121° C. for 20 mins
Procedure: In yet another alternative, the first component comprises an autoclaved terminally sterilized acetyl salicylic acid particulate powder. The terminally sterilized material may be obtained by autoclaving at 121° C. for 20 mins.
Alternatively, the first component was prepared by filling acetyl salicylic acid into vials and terminally sterilizing the ASA filled vials for 20 minutes at 121° C. A skilled person would not expect that a two-component system can be based on autoclaved ASA due to an expected incompatibility with heat.

[4] = Reconstitution testing of ASA in buffer diluents; format: physicochemical; settings: gamma irradiated ASA
Procedure: The material produced in the radiation and spray drying experiments was tested in reconstitution studies and compared to non-sterile, crystalline acetyl salicylic acid.
The buffer systems were tested for reconstitution of 325.0 mg gamma irradiated acetyl salicylic acid powder in 5 or 10 ml reconstitution fluid. Different buffer strengths were screened. […]

[5] = buffer —, purified water Ad 10 g, 10 mL

Average conc. salicylic acid ([1]; 60 g/L mannitol, 0 hr): 0.262 mg/mL
Average conc. salicylic acid ([1]; 60 g/L mannitol, 72 Hrs): 0.897 mg/mL
Average conc. salicylic acid ([1]; 60 g/L mannitol, 6 hrs): 0.285 mg/mL
Average conc. salicylic acid ([1]; 60 g/L mannitol, 12 hrs): 0.312 mg/mL
Average conc. salicylic acid ([1]; 60 g/L mannitol, 24 hrs): 0.574 mg/mL
Average conc. salicylic acid ([1]; 60 g/L mannitol, 48 hrs): 0.863 mg/mL
Average conc. of salicylic acid ([1]; Acidified 60 g/L mannitol, 0 hr): 0.153 mg/mL
Average conc. of salicylic acid ([1]; Acidified 60 g/L mannitol, 72 Hrs): 0.403 mg/mL
Average conc. of salicylic acid ([1]; Acidified 60 g/L mannitol, 6 hrs): 0.167 mg/mL
Average conc. of salicylic acid ([1]; Acidified 60 g/L mannitol, 12 hrs): 0.218 mg/mL
Average conc. of salicylic acid ([1]; Acidified 60 g/L mannitol, 24 hrs): 0.260 mg/mL
Average conc. of salicylic acid ([1]; Acidified 60 g/L mannitol, 48 hrs): 0.322 mg/mL
Average conc. of salicylic acid ([1]; Acidified Tert-butyl alcohol, 0 hr): 0.237 mg/mL
Average conc. of salicylic acid ([1]; Acidified Tert-butyl alcohol, 72 Hrs): 8.176 mg/mL
Average conc. of salicylic acid ([1]; Acidified Tert-butyl alcohol, 6 hrs): 0.388 mg/mL
Average conc. of salicylic acid ([1]; Acidified Tert-butyl alcohol, 12 hrs): 1.737 mg/mL
Average conc. of salicylic acid ([1]; Acidified Tert-butyl alcohol, 24 hrs): 3.135 mg/mL
Average conc. of salicylic acid ([1]; Acidified Tert-butyl alcohol, 48 hrs): 5.403 mg/mL
Average conc. of salicylic acid ([1]; Acidified ethanol 96%, 0 hr): 0.901 mg/mL
Average conc. of salicylic acid ([1]; Acidified ethanol 96%, 72 Hrs): 1.627 mg/mL
Average conc. of salicylic acid ([1]; Acidified ethanol 96%, 6 hrs): 0.947 mg/mL
Average conc. of salicylic acid ([1]; Acidified ethanol 96%, 12 hrs): 1.130 mg/mL
Average conc. of salicylic acid ([1]; Acidified ethanol 96%, 24 hrs): 1.280 mg/mL
Average conc. of salicylic acid ([1]; Acidified ethanol 96%, 48 hrs): 1.430 mg/mL
Average conc. of salicylic acid ([1]; Acidified water, 0 hr): 0.162 mg/mL
Average conc. of salicylic acid ([1]; Acidified water, 72 Hrs): 0.402 mg/mL
Average conc. of salicylic acid ([1]; Acidified water, 6 hrs): 0.168 mg/mL
Average conc. of salicylic acid ([1]; Acidified water, 12 hrs): 0.217 mg/mL
Average conc. of salicylic acid ([1]; Acidified water, 24 hrs): 0.269 mg/mL
Average conc. of salicylic acid ([1]; Acidified water, 48 hrs): 0.327 mg/mL
Average conc. salicylic acid ([1]; Ethanol 96%, 0 hr): 1.092 mg/mL
Average conc. salicylic acid ([1]; Ethanol 96%, 72 Hrs): 24.768 mg/mL
Average conc. salicylic acid ([1]; Ethanol 96%, 6 hrs): 1.961 mg/mL
Average conc. salicylic acid ([1]; Ethanol 96%, 12 hrs): 3.315 mg/mL
Average conc. salicylic acid ([1]; Ethanol 96%, 24 hrs): 18.682 mg/mL
Average conc. salicylic acid ([1]; Ethanol 96%, 48 hrs): 21.522 mg/mL
Average conc. salicylic acid ([1]; Tert-butyl alcohol, 0 hr): 0.543 mg/mL
Average conc. salicylic acid ([1]; Tert-butyl alcohol, 72 Hrs): 18.135 mg/mL
Average conc. salicylic acid ([1]; Tert-butyl alcohol, 6 hrs): 0.988 mg/mL
Average conc. salicylic acid ([1]; Tert-butyl alcohol, 12 hrs): 1.669 mg/mL
Average conc. salicylic acid ([1]; Tert-butyl alcohol, 24 hrs): 9.261 mg/mL
Average conc. salicylic acid ([1]; Tert-butyl alcohol, 48 hrs): 16.238 mg/mL
Average conc. salicylic acid ([1]; Water, 0 hr): 0.269 mg/mL
Average conc. salicylic acid ([1]; Water, 72 Hrs): 0.904 mg/mL
Average conc. salicylic acid ([1]; Water, 6 hrs): 0.289 mg/mL
Average conc. salicylic acid ([1]; Water, 12 hrs): 0.312 mg/mL
Average conc. salicylic acid ([1]; Water, 24 hrs): 0.574 mg/mL
Average conc. salicylic acid ([1]; Water, 48 hrs): 0.854 mg/mL
% of salicylic acid ([1]; acidified ethanol, up to 72 hours (Limit Not more than 5%)): less than 2%
degradation of acetyl salicylic acid [3]: no degradation
pH after reconstitution ([4]; Carbonate - NaOH 0.15M): 6.254
325 mg ASA dissolves? ([4]; Carbonate - NaOH 0.2M, 10 mL): YES -
pH after reconstitution ([4]; Carbonate - NaOH 0.2M, 10 mL): 9.160
325 mg ASA dissolves? ([4]; Carbonate - NaOH 0.25, 10 mL): YES -
pH after reconstitution ([4]; Carbonate - NaOH 0.25, 10 mL): 9.646
Time needed to dissolve (±) ([4]; Carbonate - NaOH 0.25, 10 mL, (3 min) + <1 min): <1 min
325 mg ASA dissolves? ([4]; Carbonate - NaOH 0.5M, 5 mL): YES -
Time needed to dissolve (±) ([4]; Carbonate - NaOH 0.5M, 5 mL): 3 min
pH after reconstitution ([4]; Carbonate - NaOH 0.5M, 5 mL): 7.534
325 mg ASA dissolves? ([4]; Carbonate - NaOH 1M, 5 mL): YES -
Time needed to dissolve (±) ([4]; Carbonate - NaOH 1M, 5 mL): <3 min
pH after reconstitution ([4]; Carbonate - NaOH 1M, 5 mL): 9.308
325 mg ASA dissolves? If yes, in 5 or 10 mL? ([4]; Carbonate-NaOH 0.025M, Ad 10 g): YES - 5 mL
Time needed to dissolve (±) ([4]; Carbonate-NaOH 0.025M, 5 mL): 0.5 min
pH after reconstitution ([4]; Carbonate-NaOH 0.025M, 5 mL): 9.233
pH after reconstitution ([4]; NaOH 0.1M): 4.199
325 mg ASA dissolves? If yes, in 5 or 10 mL? ([4]; NaOH 0.25M): YES - 10 mL
pH after reconstitution ([4]; NaOH 0.25M, 10 mL): 7.099
Time needed to dissolve (±) ([4]; NaOH 0.25M, 10 mL, (3 min) + <1 min): <1 min
325 mg ASA dissolves? If yes, in 5 or 10 mL? ([4]; NaOH 0.3M): YES - 10 mL
Time needed to dissolve (±) ([4]; NaOH 0.3M, 10 mL, printed as (3 min) + 1 min): 1 min
325 mg ASA dissolves? If yes, in 5 or 10 mL? ([4]; NaOH 0.4M): YES - 10 mL
pH after reconstitution ([4]; NaOH 0.4M, 10 mL): 12.103
Time needed to dissolve (±) ([4]; NaOH 0.4M, 10 mL, (3 min) + <1 min): <1 min
325 mg ASA dissolves? If yes, in 5 or 10 mL? ([4]; NaOH 0.5M): YES - 5 mL
Time needed to dissolve (±) ([4]; NaOH 0.5M, 5 mL): <1 min
pH after reconstitution ([4]; NaOH 0.5M, 5 mL): 7.229
325 mg ASA dissolves? If yes, in 5 or 10 mL? ([4]; NaOH 1M): YES - 5 mL
Time needed to dissolve (±) ([4]; NaOH 1M, 5 mL): <0.25 min
pH after reconstitution ([4]; NaOH 1M, 5 mL): 12.814
325 mg ASA dissolves? ([4]; TBST 1M, pH of medium 7.574, 10 mL): YES -
Time needed to dissolve (±) ([4]; TBST 1M, 10 mL): 15 min
pH after reconstitution ([4]; TBST 1M, 10 mL): 7.100
Time needed to dissolve (±) ([4]; Tris 0.025M, Ad 10 g, volume as in the dissolves column of the same line): <1 min and 2 min
pH after reconstitution ([4]; Tris 0.1M): 4.195
325 mg ASA dissolves? ([4]; Tris 0.25M, pH of medium 10.701, 10 mL): YES -
pH after reconstitution ([4]; Tris 0.25M, 10 mL): 7.616
325 mg ASA dissolves? ([4]; Tris 0.5M, pH of medium 10.814, 5 mL): YES -
Time needed to dissolve (±) ([4]; Tris 0.5M, 5 mL): 3 min
pH after reconstitution ([4]; Tris 0.5M, 5 mL): 7.592
325 mg ASA dissolves? ([4]; Tris 1M, pH of medium 11.047, 5 mL): YES -
Time needed to dissolve (±) ([4]; Tris 1M, 5 mL): 3 min
pH after reconstitution ([4]; Tris 1M, 5 mL): 8.550
325 mg ASA dissolves? If yes, in 5 or 10 mL? ([4]; buffer — , strength —, purified water Ad 10 g): Yes - 10 mL
Time needed to dissolve (±) [4, 5]: 30 min
pH after reconstitution [4, 5]: 8.125
SMILES: CC(=O)Oc1ccccc1C(=O)O [ASA, Acetyl salicylic acid]
solubility ([2]; above pH 5.5): above 100 mg/ml
solubility in water ([2]; water): about 0.3%
